Test results taken from ChEMBL document CHEMBL1125168, “Antihypertensive activity of redox derivatives of tryptophan” (J Med Chem, 1990).

Assay: Second-order rate of Ferricyanide -mediated oxidation using spectrophotometric method
Assay type: ADME

| SMILES | Ko [M⁻¹ s⁻¹] |
| --- | --- |
| CCOC(=O)C(Cc1c[nH]c2ccccc12)NC(=O)c1ccc[n+](C)c1 (centres undefined) | 13.5 |
| C[n+]1cccc(C(=O)NC(Cc2c[nH]c3ccccc23)C(=O)OC2CCCCC2)c1 (centres undefined) | 12.2 |
| COC(=O)C(Cc1c[nH]c2ccccc12)NC(=O)c1ccc[n+](C)c1 (centres undefined) | 13.8 |
| CCCCCCCCOC(=O)C(Cc1c[nH]c2ccccc12)NC(=O)c1ccc[n+](C)c1 (centres undefined) | 7.61 |
